Measurements taken from PubChem BioAssay AID1963433 (Molecular Pharmacology Branch, DTP, NCI, 2024).
pIC50: −log10 of the molar value. “And” between values parts separate entries of the source, which are not always exact repeats. Equal values may be shown once.

System: 772245-204-R-J1-PDC complex spheroid growth
Test: Anticancer human tumor 772245-204-R-J1-PDC patient-derived rhabdomyosarcoma cell line growth inhibition [Asc]
Conditions: for viability, T/C: stronger effect = lower value; active means viability on the fitted dose curve at most 10% of control; inactive means the rest
Outline: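 Tumor cells were grown as multicellular spheroids with stromal HUVEC and mesenchymal stem cells and treated singly or in combination. Concentrations fell in half-log steps from the clinical Cmax, or from 10 microM where none was known.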

[1] = curve of first compound, second compound 0.03 µM
[2] = curve of first compound, second compound 0.0949 µM
[3] = curve of first compound, second compound 0.3 µM
[4] = curve of first compound, second compound 0.949 µM
[5] = curve of first compound, second compound 3 µM
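Further: compound exposure lasted seven days.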
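Wherever viability, T/C is given: 100% = DMSO vehicle control viability.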

COc1c(OCCCN2CCOCC2)ccc2c3n(c(=NC(=O)c4cnc(N)nc4)nc12)CCN3 + Cc1c(S(C)(=O)=O)c(-c2cc(F)cc(N3CCN(c4ccc(NS(=O)(=O)c5ccc(NC(CCN6CCC(C(=O)OCCCP(=O)(O)O)CC6)CSc6ccccc6)c(S(=O)(=O)C(F)(F)F)c5)cc4)CC3)c2)c(-c2ccc(Cl)cc2)n1C(C)C
7.31: pIC50 (curve of first compound, second compound 0.316 µM)
> 8.50: pIC50 (curve of first compound, second compound 3.16 µM) | pIC50 (curve of first compound, second compound 10 µM)
7.67: pIC50 (curve of first compound, second compound 1 µM)
inactive: viability, T/C (second compound 0.1 µM, first compound 0.00316 µM) 82.5% | viability, T/C (second compound 0.1 µM, first compound 0.01 µM) 73.1% | viability, T/C (second compound 0.1 µM, first compound 0.0316 µM) 55.7% | viability, T/C (second compound 0.1 µM, first compound 0.1 µM) 45.2% | viability, T/C (second compound 0.1 µM, first compound 0.316 µM) 27.1% | viability, T/C (second compound 0.1 µM, first compound 1 µM) 18.8% | viability, T/C (second compound 0.316 µM, first compound 0.00316 µM) 64.2% | viability, T/C (second compound 0.316 µM, first compound 0.01 µM) 74.5% | viability, T/C (second compound 0.316 µM, first compound 0.0316 µM) 55.4% | viability, T/C (second compound 0.316 µM, first compound 0.1 µM) 36.8% | viability, T/C (second compound 0.316 µM, first compound 0.316 µM) 18.4% | viability, T/C (second compound 0.316 µM, first compound 1 µM) 11.6% | viability, T/C (second compound 1 µM, first compound 0.00316 µM) 65.4% | viability, T/C (second compound 1 µM, first compound 0.01 µM) 59.9% | viability, T/C (second compound 1 µM, first compound 0.0316 µM) 44.8% | viability, T/C (second compound 1 µM, first compound 0.1 µM) 24.9% | viability, T/C (second compound 1 µM, first compound 0.316 µM) 12.7% | viability, T/C (second compound 3.16 µM, first compound 0.00316 µM) 43.6% | viability, T/C (second compound 3.16 µM, first compound 0.01 µM) 56.1% | viability, T/C (second compound 3.16 µM, first compound 0.0316 µM) 29.4% | viability, T/C (second compound 3.16 µM, first compound 0.1 µM) 19.3% | viability, T/C (second compound 10 µM, first compound 0.00316 µM) 49.3% | viability, T/C (second compound 10 µM, first compound 0.01 µM) 41.9% | viability, T/C (second compound 10 µM, first compound 0.0316 µM) 39.1% | viability, T/C (second compound 10 µM, first compound 0.1 µM) 18.2%
active: viability, T/C (second compound 1 µM, first compound 1 µM) 6.44% | viability, T/C (second compound 3.16 µM, first compound 0.316 µM) 11.5% | viability, T/C (second compound 3.16 µM, first compound 1 µM) 3.48% | viability, T/C (second compound 10 µM, first compound 0.316 µM) 6.81% | viability, T/C (second compound 10 µM, first compound 1 µM) 3.06%
7.24: pIC50 (curve of first compound, second compound 0.1 µM)

COc1c(OCCCN2CCOCC2)ccc2c3n(c(=NC(=O)c4cnc(N)nc4)nc12)CCN3 + CCN1C(C(=O)NC23CCC(C(=O)O)(CC2)CC3)C(c2cccc(Cl)c2F)C2(C(=O)Nc3cc(Cl)ccc32)C12CCCCC2
7.29: pIC50 [5]
6.84: pIC50 [2]
inactive: viability, T/C (second compound 0.03 µM, first compound 0.00316 µM) 99.5% | viability, T/C (second compound 0.03 µM, first compound 0.01 µM) 105% | viability, T/C (second compound 0.03 µM, first compound 0.0316 µM) 83.7% | viability, T/C (second compound 0.03 µM, first compound 0.1 µM) 61.6% | viability, T/C (second compound 0.03 µM, first compound 0.316 µM) 41.8% | viability, T/C (second compound 0.03 µM, first compound 1 µM) 32.3% | viability, T/C (second compound 0.0949 µM, first compound 0.00316 µM) 105% | viability, T/C (second compound 0.0949 µM, first compound 0.01 µM) 97.6% | viability, T/C (second compound 0.0949 µM, first compound 0.0316 µM) 80% | viability, T/C (second compound 0.0949 µM, first compound 0.1 µM) 57.5% | viability, T/C (second compound 0.0949 µM, first compound 0.316 µM) 35.6% | viability, T/C (second compound 0.0949 µM, first compound 1 µM) 24.8% | viability, T/C (second compound 0.3 µM, first compound 0.00316 µM) 103% | viability, T/C (second compound 0.3 µM, first compound 0.01 µM) 109% | viability, T/C (second compound 0.3 µM, first compound 0.0316 µM) 84.7% | viability, T/C (second compound 0.3 µM, first compound 0.1 µM) 46.6% | viability, T/C (second compound 0.3 µM, first compound 0.316 µM) 39.1% | viability, T/C (second compound 0.3 µM, first compound 1 µM) 30% | viability, T/C (second compound 0.949 µM, first compound 0.00316 µM) 105% | viability, T/C (second compound 0.949 µM, first compound 0.01 µM) 99% | viability, T/C (second compound 0.949 µM, first compound 0.0316 µM) 77.2% | viability, T/C (second compound 0.949 µM, first compound 0.1 µM) 55.2% | viability, T/C (second compound 0.949 µM, first compound 0.316 µM) 37.3% | viability, T/C (second compound 0.949 µM, first compound 1 µM) 23% | viability, T/C (second compound 3 µM, first compound 0.00316 µM) 69.3% | viability, T/C (second compound 3 µM, first compound 0.01 µM) 78.5% | viability, T/C (second compound 3 µM, first compound 0.0316 µM) 57.4% | viability, T/C (second compound 3 µM, first compound 0.1 µM) 38.1% | viability, T/C (second compound 3 µM, first compound 0.316 µM) 29.5% | viability, T/C (second compound 3 µM, first compound 1 µM) 26.6%
7.04: pIC50 [3]
6.86: pIC50 [4]
6.73: pIC50 [1]

NC(=O)C(=Cn1cnc(-c2cc(C(F)(F)F)cc(C(F)(F)F)c2)n1)c1cncnc1 + CCN1C(C(=O)NC23CCC(C(=O)O)(CC2)CC3)C(c2cccc(Cl)c2F)C2(C(=O)Nc3cc(Cl)ccc32)C12CCCCC2
inactive: viability, T/C (second compound 0.03 µM, first compound 0.000949 µM) 88.9% | viability, T/C (second compound 0.03 µM, first compound 0.003 µM) 96.5% | viability, T/C (second compound 0.03 µM, first compound 0.00949 µM) 97.1% | viability, T/C (second compound 0.03 µM, first compound 0.03 µM) 92.4% | viability, T/C (second compound 0.03 µM, first compound 0.0949 µM) 38.5% | viability, T/C (second compound 0.03 µM, first compound 0.3 µM) 40.5% | viability, T/C (second compound 0.0949 µM, first compound 0.000949 µM) 103% | viability, T/C (second compound 0.0949 µM, first compound 0.003 µM) 93.1% | viability, T/C (second compound 0.0949 µM, first compound 0.00949 µM) 88.5% | viability, T/C (second compound 0.0949 µM, first compound 0.03 µM) 44.5% | viability, T/C (second compound 0.0949 µM, first compound 0.0949 µM) 37.2% | viability, T/C (second compound 0.0949 µM, first compound 0.3 µM) 22.6% | viability, T/C (second compound 0.3 µM, first compound 0.000949 µM) 94.7% | viability, T/C (second compound 0.3 µM, first compound 0.003 µM) 105% | viability, T/C (second compound 0.3 µM, first compound 0.00949 µM) 85.2% | viability, T/C (second compound 0.3 µM, first compound 0.03 µM) 62.8% | viability, T/C (second compound 0.3 µM, first compound 0.0949 µM) 31.1% | viability, T/C (second compound 0.3 µM, first compound 0.3 µM) 30.4% | viability, T/C (second compound 0.949 µM, first compound 0.000949 µM) 92.8% | viability, T/C (second compound 0.949 µM, first compound 0.003 µM) 88.8% | viability, T/C (second compound 0.949 µM, first compound 0.00949 µM) 84.7% | viability, T/C (second compound 0.949 µM, first compound 0.03 µM) 46.4% | viability, T/C (second compound 0.949 µM, first compound 0.0949 µM) 28.8% | viability, T/C (second compound 0.949 µM, first compound 0.3 µM) 18.1% | viability, T/C (second compound 3 µM, first compound 0.000949 µM) 69.9% | viability, T/C (second compound 3 µM, first compound 0.003 µM) 66.9% | viability, T/C (second compound 3 µM, first compound 0.00949 µM) 69.5% | viability, T/C (second compound 3 µM, first compound 0.03 µM) 17.7% | viability, T/C (second compound 3 µM, first compound 0.0949 µM) 10.8% | viability, T/C (second compound 3 µM, first compound 0.3 µM) 15.9%
7.55: pIC50 [4]
7.56: pIC50 [2]
7.84: pIC50 [5]
7.12: pIC50 [1]
7.33: pIC50 [3]

C=C(F)C(=O)N1CCN(c2nc(OCC3CCCN3C)nc3c2CCN(c2cccc4cccc(Cl)c24)C3)CC1CC#N (stereo unspecified)
inactive: viability, T/C (compound 0.0316 µM) 92.1% and 101% and 100% | viability, T/C (compound 0.1 µM) 85.8% and 91.9% and 89.9% | viability, T/C (compound 0.316 µM) 77.3% and 99.5% and 104% | viability, T/C (compound 1 µM) 87.6% and 98.4% and 95.1% | viability, T/C (compound 3.16 µM) 62.3% and 76.7% and 101%
5.40 and 5.33 and 5.10: pIC50 (curve of compound)
